Measurements reported in ChEMBL document CHEMBL3301472, “MMV Malaria Box HIV and cytotoxicity screening”.

What was measured:
Format in all cases: toxicity, cell-based
[1] = MMV: MTT Cytotoxicity Assay Day 7 pi of Assay #6 (compound washed out Day 1 pi), U87-CD4-CCR5 cells, % cell death @ 5mM compound; conditions: human, u87-cd4-ccr5, 5000 µM
[2] = MMV: MTT Cytotoxicity Assay Day 3 pi, U87-CD4-CCR5 cells, % cell death @ 5mM compound; conditions: human, u87-cd4-ccr5, 5000 µM
[3] = MMV: MTT Cytotoxicity Assay Day 7 pi of Assay #10 (NO washout), U87-CD4-CCR5 cells, % cell death @ 5mM compound; conditions: human, u87-cd4-ccr5, 5000 µM
[4] = MMV: MTT Cytotoxicity Assay Day 3 pi, U87-CD4-CXCR4 cells, % cell death @ 5mM compound; conditions: human, u87-cd4-cxcr4, 5000 µM
[5] = MMV: MTT Cytotoxicity Assay Day 7 pi of Assay #7 (compound washed out Day 1 pi), U87-CD4-CXCR4 cells, % cell death @ 5mM compound; conditions: human, u87-cd4-cxcr4, 5000 µM
[6] = MMV: MTT Cytotoxicity Assay Day 7 pi of Assay #11 (NO washout), U87-CD4-CXCR4 cells, % cell death @ 5mM compound; conditions: human, u87-cd4-cxcr4, 5000 µM

COc1ccc(C2c3ccc4ccccc4c3Oc3ncn(CCCN(C)C)c(=N)c32)cc1 (stereo not drawn)
% Cell Death [1]: -31 | % Cell Death [2]: 15 | % Cell Death [3]: -3 | % Cell Death [4]: 39 | % Cell Death [5]: -12 | % Cell Death [6]: -61

Nc1nc(Nc2cccc(F)c2)nc2ccccc12
% Cell Death [1]: -19 | % Cell Death [2]: 42 | % Cell Death [3]: 45 | % Cell Death [4]: 38 | % Cell Death [5]: -13 | % Cell Death [6]: 36

Cc1sc(NC(=O)c2ccccc2)c(C(c2cccs2)N2CCN(c3ccccc3)CC2)c1C (stereo not drawn)
% Cell Death [1]: -19 | % Cell Death [2]: -1 | % Cell Death [3]: 95 | % Cell Death [4]: 45 | % Cell Death [5]: 4 | % Cell Death [6]: -15

CCOC(=O)c1c(C)n(-c2ccccc2)c2ccc(OC(=O)c3cc(OC)c(OC)c(OC)c3)cc12
% Cell Death [1]: -12 | % Cell Death [2]: -4 | % Cell Death [3]: 12 | % Cell Death [4]: 34 | % Cell Death [5]: 2 | % Cell Death [6]: -19

COc1ccc(CCN2C(=O)c3[nH]nc(-c4cc(Cl)c(C)cc4O)c3C2c2ccccc2F)cc1 (stereo not drawn)
% Cell Death [1]: -35 | % Cell Death [2]: 19 | % Cell Death [3]: 47 | % Cell Death [4]: 32 | % Cell Death [5]: -18 | % Cell Death [6]: -26

N#Cc1nc(Cc2cccc3ccccc23)oc1N1CCN(C(c2ccccc2)c2ccccc2)CC1
% Cell Death [1]: 78 | % Cell Death [2]: 112 | % Cell Death [3]: 109 | % Cell Death [4]: 101 | % Cell Death [5]: 93 | % Cell Death [6]: -30

O=C(NNc1cc(N2CCCC2)nc(N2CCCC2)n1)c1ccccc1
% Cell Death [1]: 15 | % Cell Death [2]: 61 | % Cell Death [3]: 27 | % Cell Death [4]: 29 | % Cell Death [5]: 53 | % Cell Death [6]: 8

COC(=O)c1ccc(Cl)c2c1C1C=CCC1C(c1cccc3ccccc13)N2 (stereo not drawn)
% Cell Death [1]: -5 | % Cell Death [2]: -6 | % Cell Death [3]: -21 | % Cell Death [4]: 40 | % Cell Death [5]: -20 | % Cell Death [6]: -34

COc1ccc(C2c3ccc4ccccc4c3Oc3ncn(CCCn4ccnc4)c(=N)c32)cc1OC (stereo not drawn)
% Cell Death [1]: -22 | % Cell Death [2]: 39 | % Cell Death [3]: -6 | % Cell Death [4]: 38 | % Cell Death [5]: -25 | % Cell Death [6]: -30

CN(N=O)C1=C(NC2CCCCC2)C(=O)c2ccccc2C1=O
% Cell Death [1]: -53 | % Cell Death [2]: 41 | % Cell Death [3]: 30 | % Cell Death [4]: 45 | % Cell Death [5]: 36 | % Cell Death [6]: 15

O=C(CCc1ccccc1)c1ccccc1OCC(O)CN1CCCCC1 (stereo not drawn)
% Cell Death [1]: 12 | % Cell Death [2]: 53 | % Cell Death [3]: 136 | % Cell Death [4]: 44 | % Cell Death [5]: 77 | % Cell Death [6]: 93

OC1=C2C(=Nc3ccccc3SC2c2ccccc2)c2ccccc21 (stereo not drawn)
% Cell Death [1]: -22 | % Cell Death [2]: 37 | % Cell Death [3]: -15 | % Cell Death [4]: 20 | % Cell Death [5]: 24 | % Cell Death [6]: -20

CCOc1ccc(N2C(N)=NC(N)=NC2(C)C)cc1.Cl
% Cell Death [1]: 56 | % Cell Death [2]: 56 | % Cell Death [3]: 135 | % Cell Death [4]: 57 | % Cell Death [5]: 35 | % Cell Death [6]: -36

COc1cccc(Nc2nc(N)c3ccccc3n2)c1.Cl
% Cell Death [1]: 13 | % Cell Death [2]: -31 | % Cell Death [3]: -2 | % Cell Death [4]: 22 | % Cell Death [5]: -5 | % Cell Death [6]: -77

CCCCCCc1cc2cc(-c3csc(C=Cc4ccccc4)n3)c(=O)oc2cc1O
% Cell Death [1]: -23 | % Cell Death [2]: 35 | % Cell Death [3]: 24 | % Cell Death [4]: 41 | % Cell Death [5]: -39 | % Cell Death [6]: -36

CCOc1ccc(CN2CCN(CC(O)COc3ccc(OCC(O)CN4CCN(Cc5ccc(OCC)cc5)CC4)cc3)CC2)cc1 (stereo not drawn)
% Cell Death [1]: 65 | % Cell Death [2]: -5 | % Cell Death [3]: 115 | % Cell Death [4]: 50 | % Cell Death [5]: 21 | % Cell Death [6]: -7

O=C(NC1CCN(Cc2ccccc2)CC1)c1cc(C(=O)NC2CCN(Cc3ccccc3)CC2)cc(C(=O)NC2CCN(Cc3ccccc3)CC2)c1
% Cell Death [1]: 14 | % Cell Death [2]: 12 | % Cell Death [3]: 48 | % Cell Death [4]: 60 | % Cell Death [5]: 72 | % Cell Death [6]: 71

COc1ccc(CCn2c(=N)c(C(=O)NCc3cccnc3)cc3c(=O)n4cccc(C)c4nc32)cc1
% Cell Death [1]: 32 | % Cell Death [2]: 1 | % Cell Death [3]: 4 | % Cell Death [4]: 15 | % Cell Death [5]: 35 | % Cell Death [6]: 8

COc1ccc(-c2cn3c(C(=O)Nc4ccccc4Cl)c(-c4ccccc4)c4c3n2CCCC4)cc1
% Cell Death [1]: -4 | % Cell Death [2]: -20 | % Cell Death [3]: 30 | % Cell Death [4]: 35 | % Cell Death [5]: -5 | % Cell Death [6]: -35

CCOc1ccc2nc(C)cc(Nc3ccc(N(C)C)cc3)c2c1.Cl
% Cell Death [1]: -13 | % Cell Death [2]: -27 | % Cell Death [3]: 23 | % Cell Death [4]: 57 | % Cell Death [5]: 4 | % Cell Death [6]: 0

Oc1ccc2ccccc2c1CNc1nc2ccccc2[nH]1
% Cell Death [1]: -27 | % Cell Death [2]: 53 | % Cell Death [3]: 36 | % Cell Death [4]: 32 | % Cell Death [5]: -22 | % Cell Death [6]: 42

O=C(Nc1ccc(-c2nc3cc(NC(=O)c4ccc(Cl)cc4)ccc3[nH]2)cc1)c1ccc(Cl)cc1
% Cell Death [1]: -14 | % Cell Death [2]: -28 | % Cell Death [3]: -18 | % Cell Death [4]: 37 | % Cell Death [5]: -23 | % Cell Death [6]: -10

OCCNc1nc(Nc2ccc(Cl)c(Cl)c2)nc2ccccc12
% Cell Death [1]: -18 | % Cell Death [2]: 41 | % Cell Death [3]: 51 | % Cell Death [4]: 30 | % Cell Death [5]: -3 | % Cell Death [6]: -59

COc1ccc(C(=O)C(CCC(CNC(C)(C)C)C(=O)c2ccc(OC)cc2)CNC(C)(C)C)cc1 (stereo not drawn)
% Cell Death [1]: 27 | % Cell Death [2]: 94 | % Cell Death [3]: 137 | % Cell Death [4]: 100 | % Cell Death [5]: 75 | % Cell Death [6]: 105

CCOc1cc2c(cc1OCC)C(c1cc(Cl)ccc1O)NCC2 (stereo not drawn)
% Cell Death [1]: -26 | % Cell Death [2]: 20 | % Cell Death [3]: 17 | % Cell Death [4]: 42 | % Cell Death [5]: 3 | % Cell Death [6]: 21

COc1cc(C(=O)ON=C(N)Cc2cccc3ccccc23)cc(OC)c1OC
% Cell Death [1]: -13 | % Cell Death [2]: 14 | % Cell Death [3]: 100 | % Cell Death [4]: 32 | % Cell Death [5]: 4 | % Cell Death [6]: -15

CN1C=C(c2ccc3ccccc3n2)C(c2c[nH]c3ccccc23)c2ccccc21 (stereo not drawn)
% Cell Death [1]: 13 | % Cell Death [2]: 94 | % Cell Death [3]: 161 | % Cell Death [4]: 46 | % Cell Death [5]: 38 | % Cell Death [6]: 0

Oc1c(C(Nc2ccccn2)c2cccc(Oc3ccccc3)c2)ccc2cccnc12 (stereo not drawn)
% Cell Death [1]: 91 | % Cell Death [2]: 113 | % Cell Death [3]: 139 | % Cell Death [4]: 101 | % Cell Death [5]: 97 | % Cell Death [6]: 106

COc1cc(-c2nc(-c3ccccc3)c(-c3ccccc3)[nH]2)cc(OC)c1O
% Cell Death [1]: 88 | % Cell Death [2]: 104 | % Cell Death [3]: 120 | % Cell Death [4]: 52 | % Cell Death [5]: 84 | % Cell Death [6]: 105

Cc1ccc(Nc2nc(N)c3ccccc3n2)cc1Cl
% Cell Death [1]: -17 | % Cell Death [2]: -34 | % Cell Death [3]: -2 | % Cell Death [4]: 36 | % Cell Death [5]: -9 | % Cell Death [6]: -31

COc1cc(CNCCc2ccc(Cl)cc2)cc(OC)c1O
% Cell Death [1]: -15 | % Cell Death [2]: -11 | % Cell Death [3]: 18 | % Cell Death [4]: 35 | % Cell Death [5]: 11 | % Cell Death [6]: 91

Cc1ccc2c(C)nc(Nc3nc(C)cc(-c4ccccc4)n3)nc2c1
% Cell Death [1]: 98 | % Cell Death [2]: 107 | % Cell Death [3]: 114 | % Cell Death [4]: 99 | % Cell Death [5]: 97 | % Cell Death [6]: 104

CCOc1ccc(Nc2ccnc3cc(Cl)ccc23)cc1
% Cell Death [1]: 20 | % Cell Death [2]: 35 | % Cell Death [3]: 72 | % Cell Death [4]: 78 | % Cell Death [5]: 47 | % Cell Death [6]: -19

COc1cc2c3cc1Oc1c(OC)c(OC)cc4c1C(Cc1ccc(O)c(c1)Oc1ccc(cc1)CC3N(C)CC2)N(C)CC4.Cl (stereo not drawn)
% Cell Death [1]: 3 | % Cell Death [2]: -12 | % Cell Death [3]: 43 | % Cell Death [4]: 36 | % Cell Death [5]: 32 | % Cell Death [6]: 83

COc1ccc2sc(N(Cc3cccnc3)C(=O)c3ccc(C#N)cc3)nc2c1
% Cell Death [1]: 2 | % Cell Death [2]: -25 | % Cell Death [3]: 2 | % Cell Death [4]: 29 | % Cell Death [5]: -25 | % Cell Death [6]: -31

CN(C)c1ccc(N=Cc2ccc(N3CCOCC3)cc2)cc1
% Cell Death [1]: 92 | % Cell Death [2]: 108 | % Cell Death [3]: 135 | % Cell Death [4]: 100 | % Cell Death [5]: 97 | % Cell Death [6]: 109

CCOC(=O)C1=CN(C)C=C(C(=O)OCC)C1c1cc(Br)c(OCC)c(OC)c1
% Cell Death [1]: 37 | % Cell Death [2]: 80 | % Cell Death [3]: 103 | % Cell Death [4]: 32 | % Cell Death [5]: 99 | % Cell Death [6]: 6

CN1CCN(c2nc(Nc3ccc(O)cc3)nc3ccccc23)CC1.Cl
% Cell Death [1]: -8 | % Cell Death [2]: 11 | % Cell Death [3]: 43 | % Cell Death [4]: 32 | % Cell Death [5]: -23 | % Cell Death [6]: 110
